Results from patent US10548894B2, “Combination therapy” (Array BioPharma Inc., priority 2013, dated 2020).
Like-named read-outs stand apart in the source and are kept apart here.

Key:
Format in all cases: cell-based
[1] = system: six melanoma T1799 mutant BRAF cell lines; assay: CellTiter-Glo proliferation assay, panel summary; details: absence of FGF2, read-out: IC50 values, range over cell lines
Procedure: (§1) All cell lines were purchased from ATTC (SK-MEL-5, SK-MEL-24, UACC-62, COLO 741, COLO-800, WM-266-4, Colo205, LS411N, SW 1417), ECACC (MDST8), DSMZ (CL-34) and NCI (LOX IMVI). […] Cell lines were cultured in 37° C. and 5% CO2 incubator and expanded in T-75 flasks. In all cases cells were thawed from frozen stocks, expanded through passage using 1:3 dilutions, counted and assessed for viability using a ViCell counter (Beckman-Coulter), prior to plating in 96-well or 6-well plates. To split and expand cell lines, cells were dislodged from flasks using 0.25% Trypsin-EDTA (GIBCO, Catalog number 25200). All cell lines were determined to be free of mycoplasma contamination as determined by a PCR detection methodology performed at Idexx Radii (Columbia, Mo., USA) and correctly identified by detection of a panel of SNPs. […]
(§2) For CellTiter-Glo™ assays, cells were dispensed into tissue culture treated 96-well plates (Costar, catalog number 3904) with a final volume of 80 μL of medium and at density of 3000 cells per well. […] Plates were incubated for 72 hrs and the effects of compounds on cell proliferation was determined using the CellTiter-Glo™ Luminescent Cell Viability Assay (CTG, Promega) and a Victor™ X4 plate reader (Perkin Elmer). […] Cells were continuously monitored every two hours for seven days with the xCELLigence real-time impedance based cell analyzer. […]

[2] = system: five CRC-derived T1799 mutant BRAF cell lines; assay: CellTiter-Glo proliferation assay, panel summary; details: absence of FGF2, read-out: IC50 values, range over cell lines
Procedure: as §1, §2

SK-MEL-24 = assay: CellTiter-Glo proliferation assay 72 hrs, with or without FGF2; details: Homo sapiens
Procedure: (§3) All cell lines were purchased from ATTC (SK-MEL-5, SK-MEL-24, UACC-62, COLO 741, COLO-800, WM-266-4, Colo205, LS411N, SW 1417), ECACC (MDST8), DSMZ (CL-34) and NCI (LOX IMVI). […] Cell lines were cultured in 37° C. and 5% CO2 incubator and expanded in T-75 flasks. In all cases cells were thawed from frozen stocks, expanded through passage using 1:3 dilutions, counted and assessed for viability using a ViCell counter (Beckman-Coulter), prior to plating in 96-well or 6-well plates. To split and expand cell lines, cells were dislodged from flasks using 0.25% Trypsin-EDTA (GIBCO, Catalog number 25200). All cell lines were determined to be free of mycoplasma contamination as determined by a PCR detection methodology performed at Idexx Radii (Columbia, Mo., USA) and correctly identified by detection of a panel of SNPs.
(§4) The Compound of Formula (I) and Compound H dissolved in 100% DMSO (Cellgro, catalog number 25-290-CQC) at concentrations of 10 mM and stored at −20° C. until use. Compounds were arrayed in 2 ml deep 96-well plates (Greiner bio-one, catalog number 780271) serially diluted 3-fold seven times yielding concentration ranges from 22 nM to 16200 nM. Recombinant Human FGF basic was purchased from R&D system (Catalog number 233-FB), and reconstituted at 50 μg/ml in sterile PBS. It was used at a fixed concentration 100 ng/ml in all experiments.
(§5) For CellTiter-Glo™ assays, cells were dispensed into tissue culture treated 96-well plates (Costar, catalog number 3904) with a final volume of 80 μL of medium and at density of 3000 cells per well. 12 to 24 hrs after plating, 20 μL of each compound dilution series were transferred to plates containing the cells, resulting in compound concentration ranges of 2700 nM to 3.7 nM by 3-fold dilutions and a final DMSO concentration of 0.16%. The total volume in each well was […]. Plates were incubated for 72 hrs and the effects of compounds on cell proliferation was determined using the CellTiter-Glo™ Luminescent Cell Viability Assay (CTG, Promega) and a Victor™ X4 plate reader (Perkin Elmer). For real-time growth assays cells were seeded into xCELLigence E-plates (Roche catalogue number 05232368001) at a density of 4000 cells per well in a total of 90 μl of media and 24 hrs after plating, 11 μl of media with or without compound was added to the wells. 2-4 replicate wells were plated for all cell lines and treatment groups with the exception of LGX818+FGF2 treated COLO 741 cells (N=1). Where indicated final concentrations of compounds and growth factor were 1 uM for Compound H, 100 ng/ml for FGF2, and either 100 nM (SK-MEL-5) or 500 nM (COLO 741) for the Compound of Formula (I). Cells were continuously monitored every two hours for seven days with the xCELLigence real-time impedance based cell analyzer. Impedance was measured using the electrodes on the E-plates, with increasing surface area coverage of cells creating greater electrode impedance. […] In all cases cell index values were normalized to a timepoint immediately following the addition of compound.
(§6) To determine whether FGFRs can rescue a subset of BRAFV600E mutant melanoma cell lines treated with the Compound of Formula (I), its anti-proliferative effects were examined in eleven T1799 mutant BRAF cell lines either in the presence or absence of the FGFR-activating ligand FGF2. […] Thus, the presence of FGF2 is able to rescue a set of BRAFV600E melanoma-derived cell lines from the anti-proliferative effects of the B-Raf inhibitor of Formula (I). Furthermore, similar effects are also observed in BRAFV600E mutant cell lines derived from CRC tumors.
(§7) Mutant (mut) and wildtype (wt) status was determined from published data. […] PTEN mut designations represent a summary call based on mutation, gene copy number, and mRNA expression information for the PTEN gene.

LS411N = assay: as above; details: Homo sapiens, LS-411N
Procedure: as §3, §4, §5, §6, §7

SW1417 = assay: as above; details: Homo sapiens
Procedure: as §3, §4, §5, §6, §7

COLO 741 = assay: as above; details: Homo sapiens
Procedure: as §3, §4, §5, §6, §7

WM-266-4 = assay: as above; details: Homo sapiens, WM-266-4 (V600D)
Procedure: as §3, §4, §5, §6, §7

UACC-62 = assay: as above; details: Homo sapiens
Procedure: as §3, §4, §5, §6, §7

COLO 205 = assay: as above; details: Homo sapiens
Procedure: as §3, §4, §5, §6, §7

MDST8 = assay: as above; details: MDST8 (V600K)
Procedure: as §3, §4, §5, §6, §7

SK-MEL-5 = assay: as above; details: Homo sapiens
Procedure: as §3, §4, §5, §6, §7

COLO-800 = assay: as above; details: Homo sapiens
Procedure: as §3, §4, §5, §6, §7

CL-34 = assay: as above
Procedure: as §3, §4, §5, §6, §7

[3] = with 100 ng/ml FGF2, read-out: LGX818 + FGF2 IC50
[4] = without FGF2, read-out: LGX818 IC50

COC(=O)N[C@@H](C)CNc1nccc(-c2cn(C(C)C)nc2-c2cc(Cl)cc(NS(C)(=O)=O)c2F)n1 [Compound of Formula (I)]
IC50 [1]: 3 to 470 nM | IC50 [2]: 4 to 185 nM | IC50 (SK-MEL-24; SK-MEL-24, with 100 ng/ml FGF2, read-out: LGX818 + FGF2 IC50): 369 nM | IC50 (SK-MEL-24; SK-MEL-24, without FGF2, read-out: LGX818 IC50): 470 nM | IC50 (LS411N; [3]): ≥ 9230 nM | IC50 (LS411N; [4]): 185 nM | IC50 (SW1417; SW1417, with 100 ng/ml FGF2, read-out: LGX818 + FGF2 IC50): 364 nM | IC50 (SW1417; SW1417, without FGF2, read-out: LGX818 IC50): 165 nM | IC50 (COLO 741; COLO 741, with 100 ng/ml FGF2, read-out: LGX818 + FGF2 IC50): 2650 nM | IC50 (COLO 741; COLO 741, without FGF2, read-out: LGX818 IC50): 53 nM | IC50 (WM-266-4; [3]): 4 nM | IC50 (WM-266-4; [4]): 3 nM | IC50 (UACC-62; UACC-62, with 100 ng/ml FGF2, read-out: LGX818 + FGF2 IC50): 4 nM | IC50 (UACC-62; UACC-62, without FGF2, read-out: LGX818 IC50): 2 nM | IC50 (COLO 205; Colo 205, with 100 ng/ml FGF2, read-out: LGX818 + FGF2 IC50): 5 nM | IC50 (COLO 205; Colo 205, without FGF2, read-out: LGX818 IC50): 4 nM | IC50 (MDST8; [3]): ≥ 10000 nM | IC50 (MDST8; [4]): 141 nM | IC50 (SK-MEL-5; SK-MEL-5, with 100 ng/ml FGF2, read-out: LGX818 + FGF2 IC50): > 1000 nM | IC50 (SK-MEL-5; SK-MEL-5, without FGF2, read-out: LGX818 IC50): 15 nM | IC50 (COLO-800; COLO-800, with 100 ng/ml FGF2, read-out: LGX818 + FGF2 IC50): 12 nM | IC50 (COLO-800; COLO-800, without FGF2, read-out: LGX818 IC50): 9 nM | IC50 (CL-34; CL-34, without FGF2, read-out: LGX818 IC50): 38 nM | IC50 (CL-34; read-out: LGX818 + FGF2 IC50): 730 nM
